This passage reports CC50 and EC50 results from patent US10029984B2, “Mono- or di-substituted indole derivatives as dengue viral replication inhibitors” (Janssen Pharmaceuticals, Inc., priority 2015, dated 2018).

The subject of data set [1] is Vero cells. Description: in vitro. The format is cell-based. The note with it: African green monkey. In outline: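 On the same plates after eGFP read-out, resazurin was added and cells incubated a further 5 h at 37 °C, 5% CO2; resorufin fluorescence read with 530 nm excitation. CC50 is the concentration halving resazurin conversion versus cell control; SI = CC50/EC50.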

Data set [2] has as its system DENV-4 strains H241. Description: Tetravalent RT-qPCR assay Protocol A, serotype 4. The format is cell-based. The note with it: Dengue virus, DENV4, 72 h; RT-qPCR serotype 4 H241, Vero cells, day 3. The method, then:
(§1) The antiviral activity of the compounds of the invention was tested against DENV-1 strain TC974#666 (NCPV; Table 6), DENV-2 strain 16681 (Table 7), DENV-3 strain H87 (NCPV; Table 8) and DENV-4 strains H241 (NCPV; Table 9) in a RT-qPCR assay. Therefore, Vero cells were infected with either DENV-1, or -2, or -3, or -4 in the presence or absence of test compounds. At day 3 post-infection, the cells were lysed and cell lysates were used to prepare cDNA of both a viral target (the 3′UTR of DENV; table 2) and a cellular reference gene (β-actin, table 2). Subsequently, a duplex real time PCR was performed on a Lightcycler480 instrument. The generated Cp value is inversely proportional to the amount of RNA expression of these targets. Inhibition of DENV replication by a test compound result in a shift of Cp's for the 3′UTR gene. On the other hand, if a test compound is toxic to the cells, a similar effect on β-actin expression will be observed. The comparative ΔΔCp method is used to calculate EC50, which is based on the relative gene expression of the target gene (3′UTR) normalized with the cellular housekeeping gene (β-actin).
(§2) The culture medium consisted of minimal essential medium supplemented with 2% of heat-inactivated fetal calf serum, 0.04% gentamycin (50 mg/mL) and 2 mM of L-glutamine. Vero cells, obtained from ECACC, were suspended in culture medium and 75 μL/well was added in 96-well plates (10000 cells/well), which already contain the antiviral compounds. Typically, these plates contain a 4-fold serial dilution of 9 dilution steps of the test compound at 200 times the final concentration in 100% DMSO (500 nL; final concentration range: 25 μM-0.00038 μM). In addition, each plate contains wells which are assigned as virus controls (containing cells and virus in the absence of compound) and cell controls (containing cells in the absence of virus and compound). Once the cells were added in the plates, the plates were incubated in a fully humidified incubator (37° C., 5% CO2) until the next day. Then, DENV-1 strain TC974#666 at an MOI of 0.6, DENV-2 strain 16681 at an MOI of 0.01, DENV-3 strain H87 at an MOI of 1.0 and DENV-4 strains H241 at an MOI of 0.2 and SG/06K2270DK1/2005 at an MOI of 0.16, were added. Therefore, 25 μL of virus suspension was added to all the wells containing test compound and to the wells assigned as virus control. In parallel, 25 μL of culture medium was added to the cell controls. Next, the plates were incubated for 3 days in a fully humidified incubator (37° C., 5% CO2). After 3 days, the supernatant was removed from the wells and the cells were washed twice with ice-cold PBS (˜100 μL). The cell pellets within the 96-well plates were stored at −80° C. for at least 1 day. Next, RNA was extracted using the Cells-to-CT™ lysis kit, according to the manufacture's guideline (Applied Biosystems). The cell lysates can be stored at −80° C. or immediately used in the reverse transcription step.
(§3) In preparation of the reverse transcription step, mix A (table 3A) was prepared and 7.57 μL/well was dispensed in a 96-well plate. After addition of 5 μL of the cell lysates, a five minute denaturation step at 75° C. was performed (table 3B). Afterwards, 7.43 μL of mix B was added (table 3C) and the reverse transcription step was initiated (table 3D) to generate cDNA.
(§4) Finally, a RT-qPCR mix was prepared, mix C (table 4A), dispensed in 96-well LightCycler qPCR plates to which 3 μL of cDNA was added and the qPCR was performed according to the conditions in table 4B on a LightCycler 480. Using the LightCycler software and an in-house LIMS system, dose response curves for each compound were calculated and the half maximal effective concentration (EC50) and the half maximal cytotoxic concentration (CC50) were determined.

Data set [3] relates to DENV-2 strain 16681. Description: Tetravalent RT-qPCR assay Protocol A, serotype 2. The format is cell-based. The settings on record: Dengue virus, DENV2, 72 h; RT-qPCR serotype 2 16681, Vero cells, day 3. The protocol: as §1, §2, §3, §4
A general note: In qPCR the cycle at which signal appears reflects the starting amount.

Data set [4] has as its system DENV-2 16681 strain. Description: DENV-2 antiviral assay (eGFP-labeled virus in Vero cells). It counts as cell-based, Dengue virus. The note with it: DENV-2 16681 eGFP, MOI 0.5, 3 days, listed as 13B*. In outline:
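Vero cells were pre-plated with compound overnight, then infected with eGFP-labeled DENV-2 16681 at MOI 0.5 and incubated 3 days at 37 °C. eGFP fluorescence read by automated microscopy; 9-point 4-fold dilutions (25 μM–0.00038 μM final) in quadruplicate, EC50 by linear interpolation versus virus and cell controls.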

Data set [5] can be described thus: in vitro. It counts as cell-based. The note with it: African green monkey, CC50. The method, then: as §1, §2, §4
Data set [6] relates to Vero cells. Description: in vitro. The format is cell-based. The note with it: African green monkey, 3 days. The method, then:
as §1, §2, §4

pEC50: −log10 of the molar value.

For orientation: CC50 means the concentration that lowers cell viability or growth by half. The pEC50 is the EC50 on a negative log10 scale, so that one unit is a factor of ten.

For `COc1cc(NC(C(=O)c2c[nH]c3c(F)c(F)ccc23)c2ccc(F)cc2OC)cc(S(C)(=O)=O)c1` (single isomer, unassigned) [Enantiomer 13B, 1-(6,7-difluoro-1H-indol-3-yl)-2-(4-fluoro-2-methoxyphenyl)-2-((3-methoxy-5-(methylsulfonyl)phenyl)amino)ethanone], the results for the CC50 in data set [1] and in data set [6] were 6.7 µM and 2.6 µM, respectively. Moreover, the pEC50 in data set [2] is 6.64; in data set [3], 9.17; in data set [4], 8.96. The CC50 at 3 days in data set [5] turned out to be 3.71 µM.
